Data reported in ChEMBL document CHEMBL1201862, “PubChem BioAssay data set” (2004).
The source made the active and inactive calls.

Tests used:
[1] = blockers of HIV-1 envelope-mediated cell-cell fusion – cherry-pick, dose response (AID 652057); assay type: functional, cell-based
[2] = viability loss in CEM21 cells – cell-based, CellTiter-Glo luminescence, cherry-picked, cytotoxicity control for viral fusion inhibitor project, dose response (AID 652042); assay type: functional;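 note: potency for signal decrease meaning cytotoxicity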
[3] = target: T1, Rac GTPase-activating protein 1 (Homo sapiens, UniProt Q9H0H5); experiment: blockers of MgcRacGAP-driven Rac1 GTP hydrolysis – biochemical, ADP Hunter fluorescence, primary and confirmatory, confirmation (AID 624330); assay type: functional
T1 sequence (Q9H0H5 whole entry): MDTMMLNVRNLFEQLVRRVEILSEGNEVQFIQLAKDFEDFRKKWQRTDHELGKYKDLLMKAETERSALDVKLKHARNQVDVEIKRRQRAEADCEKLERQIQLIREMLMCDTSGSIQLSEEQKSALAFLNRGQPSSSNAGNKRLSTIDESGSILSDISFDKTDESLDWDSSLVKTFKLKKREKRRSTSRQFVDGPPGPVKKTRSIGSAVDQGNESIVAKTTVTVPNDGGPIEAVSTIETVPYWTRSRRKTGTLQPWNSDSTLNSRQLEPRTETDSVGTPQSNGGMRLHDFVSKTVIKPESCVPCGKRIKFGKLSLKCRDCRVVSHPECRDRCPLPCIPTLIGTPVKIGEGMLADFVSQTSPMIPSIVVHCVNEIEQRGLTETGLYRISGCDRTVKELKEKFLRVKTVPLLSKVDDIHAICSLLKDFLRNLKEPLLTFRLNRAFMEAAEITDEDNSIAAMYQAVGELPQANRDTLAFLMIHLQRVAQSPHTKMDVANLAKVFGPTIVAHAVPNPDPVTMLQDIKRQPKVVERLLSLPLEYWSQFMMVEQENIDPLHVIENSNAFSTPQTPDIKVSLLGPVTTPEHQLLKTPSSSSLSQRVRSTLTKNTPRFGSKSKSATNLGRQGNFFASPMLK

[4] = tested on: INS1; experiment: INS-1E survival protection against cytokine death – cell-based, luminescence, retest, dose response (AID 449756); assay type: functional; settings: Rattus norvegicus;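 note: cell death triggered by IL-1 beta plus TNF-alpha plus IFN-gamma mixture; protective hits raise ATP signal compared with cytokine alone wells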
[5] = viability loss in HeLa cells – cytotoxicity control for MgcRacGAP inhibitor project, dose response (AID 624300); assay type: functional
[6] = tested on: Streptococcus; experiment: GAS UMAA2166 growth inhibition – luminescence, BacTiterGlo, counter-screen for streptokinase expression inhibitor project, dose response (AID 1915); assay type: functional, organism-based;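 note: potency for reduction of bacterial viability or growth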
[7] = target: T2, Streptokinase A (Streptococcus pyogenes serotype M1, UniProt P10520); experiment: viability-normalized secreted streptokinase activity reduction – plasminogen activation absorbance, OD405, dose response (AID 1914); assay type: functional, Streptococcus pyogenes M1 GAS;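 note: secreted streptokinase activity via plasminogen activation per viability signal from cell pellet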
T2 sequence (P10520 whole entry): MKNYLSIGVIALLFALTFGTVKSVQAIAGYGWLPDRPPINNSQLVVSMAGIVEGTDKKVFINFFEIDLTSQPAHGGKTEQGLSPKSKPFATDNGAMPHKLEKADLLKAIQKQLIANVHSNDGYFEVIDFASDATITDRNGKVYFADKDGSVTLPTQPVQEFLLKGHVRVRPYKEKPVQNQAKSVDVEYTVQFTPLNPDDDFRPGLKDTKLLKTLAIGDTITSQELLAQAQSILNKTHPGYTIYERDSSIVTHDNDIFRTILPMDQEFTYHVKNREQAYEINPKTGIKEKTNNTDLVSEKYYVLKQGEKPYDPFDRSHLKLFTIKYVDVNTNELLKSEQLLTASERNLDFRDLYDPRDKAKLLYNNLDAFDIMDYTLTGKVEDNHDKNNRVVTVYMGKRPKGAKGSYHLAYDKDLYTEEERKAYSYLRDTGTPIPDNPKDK

[8] = target: Mu-type opioid receptor (Homo sapiens, UniProt P35372); assay type: functional, cell-based;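 note: U2OS cells with beta-arrestin recruitment to OPRM1 by beta-gal complementation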
Sequence of Mu-type opioid receptor (P35372 whole entry): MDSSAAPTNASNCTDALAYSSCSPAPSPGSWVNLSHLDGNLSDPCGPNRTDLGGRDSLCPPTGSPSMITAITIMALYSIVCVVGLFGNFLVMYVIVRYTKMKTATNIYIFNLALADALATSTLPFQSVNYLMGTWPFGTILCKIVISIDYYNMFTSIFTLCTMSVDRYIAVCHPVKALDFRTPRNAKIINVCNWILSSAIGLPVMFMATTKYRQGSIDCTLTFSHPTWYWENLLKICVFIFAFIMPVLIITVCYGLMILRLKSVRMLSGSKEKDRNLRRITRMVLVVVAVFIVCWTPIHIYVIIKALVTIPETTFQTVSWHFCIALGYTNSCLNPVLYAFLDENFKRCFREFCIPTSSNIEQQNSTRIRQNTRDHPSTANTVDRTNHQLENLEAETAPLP

[9] = A Cell Based Secondary Assay To Explore Cytotoxicity of Compounds that Sensitize Mycobacterium Tuberculosis to Beta-Lactam Antibiotics.; assay type: functional
[10] = tested on: Streptococcus sp. 'group A'; experiment: Streptococcus pyogenes SK(-)GAS viability under kanamycin – luminescence, BacTiterGlo, confirmation, counter-screen for streptokinase expression inhibitor project, dose response (AID 1900); assay type: functional, organism-based
[11] = target: 5-hydroxytryptamine receptor 2A (Mus musculus, UniProt P35363); assay type: functional, cell-based;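 note: CHO-K1 cells with tagged receptor and beta-arrestin; agonist potency measured as compound-induced activation of the receptor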
Sequence of 5-hydroxytryptamine receptor 2A (P35363 whole entry): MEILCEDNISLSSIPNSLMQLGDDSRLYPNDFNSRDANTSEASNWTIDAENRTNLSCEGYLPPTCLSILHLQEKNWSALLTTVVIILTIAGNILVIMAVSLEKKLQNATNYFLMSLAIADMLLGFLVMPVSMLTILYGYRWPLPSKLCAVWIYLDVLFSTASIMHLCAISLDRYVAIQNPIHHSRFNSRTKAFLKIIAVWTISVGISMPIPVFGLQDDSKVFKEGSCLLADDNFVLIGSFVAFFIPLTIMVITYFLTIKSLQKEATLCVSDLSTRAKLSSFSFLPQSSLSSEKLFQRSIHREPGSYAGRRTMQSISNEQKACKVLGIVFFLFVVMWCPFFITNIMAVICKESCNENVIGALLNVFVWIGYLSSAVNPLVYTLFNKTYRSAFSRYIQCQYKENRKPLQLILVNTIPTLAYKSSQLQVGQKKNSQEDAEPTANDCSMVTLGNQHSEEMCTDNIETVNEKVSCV

[12] = target: T3, DNA repair and recombination protein RAD54-like (Homo sapiens, UniProt Q92698); experiment: RAD54 Holliday junction migration blockers – biochemical, fluorescence, cherry-picked samples, dose series, confirmation (AID 651657); assay type: functional
T3 sequence (Q92698 whole entry): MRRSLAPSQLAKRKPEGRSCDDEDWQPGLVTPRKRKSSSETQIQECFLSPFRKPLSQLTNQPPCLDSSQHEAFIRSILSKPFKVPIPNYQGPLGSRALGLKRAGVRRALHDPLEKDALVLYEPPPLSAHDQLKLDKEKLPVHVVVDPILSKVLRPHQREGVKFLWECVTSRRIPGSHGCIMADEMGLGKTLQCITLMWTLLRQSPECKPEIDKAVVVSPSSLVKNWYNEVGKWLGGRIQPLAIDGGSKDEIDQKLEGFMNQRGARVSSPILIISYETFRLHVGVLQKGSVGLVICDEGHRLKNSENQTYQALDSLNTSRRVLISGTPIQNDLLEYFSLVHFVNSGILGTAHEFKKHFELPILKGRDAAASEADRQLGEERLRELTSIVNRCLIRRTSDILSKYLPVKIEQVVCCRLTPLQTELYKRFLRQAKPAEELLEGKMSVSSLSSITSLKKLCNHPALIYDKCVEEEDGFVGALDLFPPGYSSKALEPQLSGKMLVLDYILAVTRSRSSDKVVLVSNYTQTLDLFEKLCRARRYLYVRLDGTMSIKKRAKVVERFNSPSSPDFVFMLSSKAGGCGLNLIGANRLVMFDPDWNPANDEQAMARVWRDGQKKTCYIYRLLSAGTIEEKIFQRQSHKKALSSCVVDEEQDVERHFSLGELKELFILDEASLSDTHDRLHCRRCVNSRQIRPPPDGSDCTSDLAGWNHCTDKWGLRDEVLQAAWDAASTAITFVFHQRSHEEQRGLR

[13] = target: T4, Trace amine-associated receptor 1 (Homo sapiens, UniProt Q96RJ0); experiment: Fluorescence-based cell-based high throughput dose response assay to identify agonists of the human trace amine associated receptor 1 (TAAR1).; assay type: functional
T4 sequence (Q96RJ0 whole entry): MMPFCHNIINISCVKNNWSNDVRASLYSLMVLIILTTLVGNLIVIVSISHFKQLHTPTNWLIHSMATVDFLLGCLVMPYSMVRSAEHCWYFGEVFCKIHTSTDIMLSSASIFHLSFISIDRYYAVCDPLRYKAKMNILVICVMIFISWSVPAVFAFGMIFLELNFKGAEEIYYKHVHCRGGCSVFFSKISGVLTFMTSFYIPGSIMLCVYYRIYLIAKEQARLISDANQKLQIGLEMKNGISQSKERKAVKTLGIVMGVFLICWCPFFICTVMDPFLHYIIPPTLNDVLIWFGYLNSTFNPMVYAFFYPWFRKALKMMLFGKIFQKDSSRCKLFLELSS

[14] = target: T4, Trace amine-associated receptor 1; experiment: Counterscreen for agonists of the human trace amine associated receptor 1 (hTAAR1): Fluorescence-based cell-based high throughput dose response assay to identify hTAAR1 agonist that also desensitize TAAR1 receptor response.; assay type: functional
[15] = cells; assay type: functional, cell-based
[16] = target: Large T antigen (Simian virus 40, UniProt P03070); assay type: functional, Betapolyomavirus macacae;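 note: Confirmatory-stage PubChem screen for compounds that inhibit SV40 T antigen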
Sequence of Large T antigen (P03070 whole entry): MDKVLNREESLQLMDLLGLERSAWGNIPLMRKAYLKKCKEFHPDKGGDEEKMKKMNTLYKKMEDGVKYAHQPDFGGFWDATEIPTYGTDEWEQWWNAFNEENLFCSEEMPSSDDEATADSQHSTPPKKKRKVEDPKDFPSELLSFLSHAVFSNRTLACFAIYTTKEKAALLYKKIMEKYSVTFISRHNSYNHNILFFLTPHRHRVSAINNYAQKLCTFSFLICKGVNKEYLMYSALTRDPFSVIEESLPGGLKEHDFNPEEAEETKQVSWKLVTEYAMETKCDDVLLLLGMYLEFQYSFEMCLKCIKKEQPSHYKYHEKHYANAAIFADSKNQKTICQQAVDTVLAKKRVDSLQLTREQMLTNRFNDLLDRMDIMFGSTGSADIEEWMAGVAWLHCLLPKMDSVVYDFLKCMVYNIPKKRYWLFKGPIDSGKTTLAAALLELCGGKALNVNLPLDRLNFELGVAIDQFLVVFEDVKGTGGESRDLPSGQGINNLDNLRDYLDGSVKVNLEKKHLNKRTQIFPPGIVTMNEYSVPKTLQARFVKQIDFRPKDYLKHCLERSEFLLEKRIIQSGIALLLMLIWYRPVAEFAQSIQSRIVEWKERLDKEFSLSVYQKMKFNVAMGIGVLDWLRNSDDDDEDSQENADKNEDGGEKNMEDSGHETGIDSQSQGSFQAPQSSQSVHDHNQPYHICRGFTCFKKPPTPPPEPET

[17] = cells; assay type: functional, cell-based; remark: listed apart in the source
[18] = target: T5, Sentrin-specific protease 1 (Homo sapiens, UniProt Q9P0U3); experiment: SENP1 catalytic domain blockers, concentration series – biochemical, kinetic FRET, dose response (AID 651697); assay type: functional; settings: read-out: IC50_Mean
T5 sequence (Q9P0U3 whole entry): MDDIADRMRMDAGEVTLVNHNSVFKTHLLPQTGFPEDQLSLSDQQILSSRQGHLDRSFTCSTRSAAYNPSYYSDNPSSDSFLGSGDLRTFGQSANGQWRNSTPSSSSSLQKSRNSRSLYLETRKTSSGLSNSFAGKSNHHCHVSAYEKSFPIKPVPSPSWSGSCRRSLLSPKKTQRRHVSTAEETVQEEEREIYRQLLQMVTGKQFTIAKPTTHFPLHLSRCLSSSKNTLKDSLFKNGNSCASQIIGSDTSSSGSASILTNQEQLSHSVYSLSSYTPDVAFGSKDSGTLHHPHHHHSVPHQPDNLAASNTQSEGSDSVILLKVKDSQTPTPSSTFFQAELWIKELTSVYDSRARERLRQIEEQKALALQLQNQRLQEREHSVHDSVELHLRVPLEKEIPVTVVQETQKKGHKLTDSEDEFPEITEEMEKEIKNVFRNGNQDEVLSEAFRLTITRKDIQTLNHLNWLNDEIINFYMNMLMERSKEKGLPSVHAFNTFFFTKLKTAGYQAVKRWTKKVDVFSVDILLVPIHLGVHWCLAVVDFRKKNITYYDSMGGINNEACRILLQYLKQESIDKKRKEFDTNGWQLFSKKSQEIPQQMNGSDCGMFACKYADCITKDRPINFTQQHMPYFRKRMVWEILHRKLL

[19] = target: T5, Sentrin-specific protease 1; experiment: Dose response confirmation of small molecule inhibitors of the catalytic domain of the SUMO protease, SENP1 in a FRET assay.; assay type: functional; settings: read-out: IC50_Mean
[20] = target: Fructose-bisphosphate aldolase (Mycobacterium tuberculosis, UniProt P9WQA3); experiment: Fluorescence-based biochemical high throughput dose response assay for inhibitors of the fructose-bisphosphate aldolase (FBA) of M. tuberculosis.; assay type: functional
Sequence of Fructose-bisphosphate aldolase (P9WQA3 whole entry): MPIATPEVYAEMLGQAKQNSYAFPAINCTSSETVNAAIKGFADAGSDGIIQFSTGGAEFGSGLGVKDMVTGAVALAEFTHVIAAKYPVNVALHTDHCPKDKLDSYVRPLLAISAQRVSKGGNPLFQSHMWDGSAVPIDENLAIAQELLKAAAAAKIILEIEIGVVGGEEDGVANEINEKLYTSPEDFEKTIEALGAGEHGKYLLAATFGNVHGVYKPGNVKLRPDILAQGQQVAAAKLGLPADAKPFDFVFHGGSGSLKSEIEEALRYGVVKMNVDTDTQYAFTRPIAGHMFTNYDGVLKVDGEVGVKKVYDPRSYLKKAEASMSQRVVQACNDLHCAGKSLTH

[21] = target: T6, Cytochrome P450 1A2 (Homo sapiens, UniProt P05177);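 note: PubChem cytochrome P450 panel assay, CYP1A2 panel member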
T6 sequence (P05177 whole entry): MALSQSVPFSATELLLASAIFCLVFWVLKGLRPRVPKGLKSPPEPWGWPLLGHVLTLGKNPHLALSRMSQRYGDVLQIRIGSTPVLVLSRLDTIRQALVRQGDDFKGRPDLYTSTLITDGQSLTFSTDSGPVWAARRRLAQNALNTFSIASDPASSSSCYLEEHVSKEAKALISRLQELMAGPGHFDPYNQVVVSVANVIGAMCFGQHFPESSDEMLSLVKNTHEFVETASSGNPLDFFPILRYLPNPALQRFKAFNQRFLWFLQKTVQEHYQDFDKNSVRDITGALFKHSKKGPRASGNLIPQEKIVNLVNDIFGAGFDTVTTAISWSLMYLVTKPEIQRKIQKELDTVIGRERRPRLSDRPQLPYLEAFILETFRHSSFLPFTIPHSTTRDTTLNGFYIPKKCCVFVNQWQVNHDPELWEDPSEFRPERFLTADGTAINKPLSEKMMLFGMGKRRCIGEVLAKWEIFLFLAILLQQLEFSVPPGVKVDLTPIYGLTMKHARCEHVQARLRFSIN

[22] = target: Phospholipase A2 (Homo sapiens, UniProt P04054); assay type: functional;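 note: confirmatory dose-response counterscreen on phospholipase A2, testing hits that came from an ultra-high-throughput screen for ATG4B inhibitors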
Sequence of Phospholipase A2 (P04054 whole entry): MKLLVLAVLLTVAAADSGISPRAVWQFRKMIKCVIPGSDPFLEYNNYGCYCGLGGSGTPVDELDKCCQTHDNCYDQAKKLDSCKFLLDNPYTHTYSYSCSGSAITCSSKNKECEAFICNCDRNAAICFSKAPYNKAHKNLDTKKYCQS

[23] = target: T7, Cysteine protease ATG4B (Homo sapiens, UniProt Q9Y4P1); assay type: functional;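 note: Fluorescence-based dose-response confirmation assay measuring inhibition of ATG4B activity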
T7 sequence (Q9Y4P1 whole entry): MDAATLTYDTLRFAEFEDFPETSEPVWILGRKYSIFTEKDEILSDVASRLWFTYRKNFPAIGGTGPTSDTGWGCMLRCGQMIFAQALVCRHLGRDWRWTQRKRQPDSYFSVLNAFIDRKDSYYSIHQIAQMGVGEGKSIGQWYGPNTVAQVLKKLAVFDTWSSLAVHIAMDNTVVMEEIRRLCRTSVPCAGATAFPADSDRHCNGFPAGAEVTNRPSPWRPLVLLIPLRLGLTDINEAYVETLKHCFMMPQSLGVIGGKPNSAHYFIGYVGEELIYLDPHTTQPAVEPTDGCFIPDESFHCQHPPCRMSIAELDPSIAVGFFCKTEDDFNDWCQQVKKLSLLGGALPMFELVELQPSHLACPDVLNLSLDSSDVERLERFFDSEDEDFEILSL

[24] = blockers of HIV-1 ZM109 envelope-driven cell-cell fusion – HeLa effector, CEM target cells, luciferase, cherry-pick, dose response (AID 652058); assay type: functional, cell-based;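 note: luciferase signal from HIV-1 Env mediated cell-cell fusion of effector and target cells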
[25] = HIV-1 AD8 envelope cell-cell fusion blockers – cherry-pick, dose response (AID 652062); assay type: functional, cell-based;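 note: luciferase signal from cell-cell fusion driven by HIV-1 clade B AD8 Env; potency is for inhibitors of fusion seen as a drop in luminescence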

CCc1nc(N2CCCCC2)c2oc3ccccc3c2n1
AC50 [1]: 30.8 µM (active)
AC50 [2]: 41.8 µM (active)

Cc1ccc2c(c1)[nH]c1c(N3CCN(Cc4ccccc4)CC3)ncnc12
IC50 [3]: 47.8 µM (active)
AC50 [4]: 3.89 µM (active)
CC50 [5]: 57.9 µM (active)

COc1ccc2oc(C(=O)Nc3nc4ccccc4[nH]3)c(C)c2c1
EC50 [6]: 12 µM (active)
EC50 [7]: > 150 µM (not active)
EC50 [8]: 92.5 µM (inactive)
CC50 [9]: > 40 µM (active)
EC50 [10]: 2.61 µM (active)
EC50 [11]: 76.1 µM (inactive)

OCCNc1nc(Nc2ccc(O)cc2)nc2ccccc12
AC50 [12]: 38.6 µM (active)
EC50 [13]: 578 nM (active)
IC50 [14]: 1.64 µM (active)
EC50 [15]: > 29.9 µM (inactive)
IC50 [16]: 4.5 µM (active)
IC50 [17]: > 29.9 µM (inactive)

Cc1ccc2n(n1)c(=O)c(Cc1ccccc1)c([O-])[n+]2-c1ccccc1
IC50 [18]: 16.8 µM (active)
IC50 [19]: 12.7 µM (active)

N#CCCN(C(=O)COc1ccc(F)cc1Br)c1ccccc1F
IC50 [20]: > 9.99 µM (inactive)

CCO[C@@H]1c2c(ccc3ccc(=O)oc23)OC(C)(C)[C@H]1O
IC50 [20]: > 1.11 µM (active)

CC(C)c1ccc2nc3sc(C(=O)N4CCc5ccccc5C4)c(N)c3cc2c1
IC50 [18]: 2.58 µM (active)
AC50 [21]: 11.2 µM (inconclusive)
IC50 [22]: 4.83 µM (active)
EC50 [6]: > 150 µM (not active)
IC50 [23]: 7.08 µM (active)
EC50 [7]: 101 µM (active)
IC50 [19]: 5.22 µM (active)
EC50 [10]: 25.6 µM (active)

Cn1c2c(c3ccccc31)CCN(CCCCN1CCN(c3ccccc3)CC1)C2=O
EC50 [8]: 92.4 µM (inactive)
EC50 [11]: 0.0455 µM (active)

COc1ccc2c3c([nH]c2c1)[C@@H](CO)N(C(=O)Nc1cccc(F)c1)CC31CN(S(=O)(=O)c2cccc(C)c2)C1
AC50 [24]: 14.9 µM (active)
AC50 [1]: 22.7 µM (active)
AC50 [2]: 23.1 µM (active)
AC50 [25]: 24.2 µM (active)

CCOc1ccc(C/C(=N/CCc2ccccc2)C2=C(O)CC(C)(C)CC2=O)cc1OCC
EC50 [13]: 358 nM (active)
IC50 [14]: 2.84 µM (active)
EC50 [15]: > 29.9 µM (inactive)
IC50 [17]: > 29.9 µM (inactive)
